The values that follow come from patent publication US4178442A, “Novel cinnamoyles piperazines and homopiperazines, the method of preparing them and their application in therapeutics” (Delalande S. A., priority 1977, dated 1979).

Data set [1] has as its system anaesthetized dog. Put plainly: Activity on the peripheral circulation, anaesthetized dog. The class given is in vivo. As for the experimental part:
The activity on the peripheral circulation was studied on an anaesthetized dog (sodium pentobarbital 30 mg/kg/i.v.). The femoral artery flow was measured by means of an electromagnetic or ultrasonic perivascular Doppler effect probe.

For data set [2], the system named is anaesthetized dog. Description: Activity on the cerebral circulation, anaesthetized dog. The class given is in vivo. The settings on record: for change in vivo at 2.5 mg/kg / change in vivo at 5 mg/kg / change in vivo at 2 mg/kg: Canis lupus familiaris, iv; for Increase of the extraction of cerebral oxygen: (A-V)/A. The protocol:
The activity on the cerebral circulation was tested on an anaesthetized dog (sodium pentobarbital 30 mg/kg/i.v.). The vertebral artery flow was measured by means of an electromagnetic perivascular or ultrasonic Doppler effect probe. The intracerebral vascular resistance was estimated by the back pressure of the internal carotid artery. […] The increase in the extraction of cerebral oxygen was estimated by the following equation:(A-V)/A in which: A represents the volume of oxygen in the arterial blood (% volume) measured by hemoreflectometry (KIPP and ZONEN's apparatus) and quantity determination of the haemoglobin (DRABKIN's method). V represents the volume of oxygen in the cerebral venous blood (internal maxillary vein). […] It should be noted that the compounds tested were injected intravenously (rapid injection).

Data set [3] deals with anaesthetized dog. Put plainly: Antiangorous activity on anaesthetized dog: consumption of oxygen in the left ventricule and cardiac effort (KATZ's index). The class given is in vivo. As to conditions: for inhibition in vivo at 2.3 mg/kg / inhibition in vivo at 2.5 mg/kg / inhibition in vivo at 9.1 mg/kg: Canis lupus familiaris, iv. Put shortly:
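Katz index taken as mean arterial pressure multiplied by ECG (D2) heart rate, and myocardial O2 use as coronary sinus flow via modified Morawitz cannula times coronary arteriovenous O2 difference. Animals: pentobarbital-anaesthetized dogs (30 mg/kg i.v.), test compounds infused slowly intravenously.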

Data set [4] in a line: in vivo. The settings on record: iv, read-out: Toxicity: LD50. The source says: *LD50 or percentage of mortality which is given between brackets
The mark [5] stands for this setting: Canis lupus familiaris, iv, dog, 5 mg/kg i.v. slow perfusion, read-out: Average arterial pressure.
Where [6] appears, read: Canis lupus familiaris, iv, dog, 5 mg/kg i.v. slow perfusion, read-out: Femoral artery flow.
Where [7] appears, read: dog, 5 mg/kg i.v. slow perfusion.
Setting [8] is: dog, 2,5 mg/kg i.v. slow perfusion.
Setting [9] is: dog, 2,5 mg/kg i.v. rapid injection.
Setting [10] is: dog, 5 mg/kg i.v. rapid injection, read-out: Internal carotid artery back pressure.
[11] abbreviates: dog, 5 mg/kg i.v. rapid injection, read-out: Systemic average arterial pressure.
Setting [12] is: dog, 5 mg/kg i.v. rapid injection, read-out: Vertebral artery flow.
Setting [13] is: dog, 5 mg/kg i.v. rapid injection.
Setting [14] is: dog, 10 mg/kg i.v. slow perfusion.
The mark [15] stands for this setting: dog, 2 mg/kg i.v. rapid injection.

Where two headings read alike, the source gives them in different places.

As to `COc1cc(/C=C/C(=O)N2CCN(CC(O)COc3cccc(C)c3)CC2)cc(OC)c1OC` (stereo not drawn) [760 521], the figures for the change in vivo at 5 mg/kg in data set [1] (setting [5]) and in data set [1] (setting [6]) were -19% and 34%, respectively. Further, the “Average arterial pressure: in time” value in data set [1] (setting [7]) is recorded as 30 min. Further, the “Femoral artery flow: in time” value in data set [1] (setting [7]) is recorded as 15 min.
`CCN(CC)CCOC(=O)C(Cc1cccc2ccccc12)CC1CCCO1` (stereo not drawn) [Naphtidrofuryl, naphtidrofuryl, reference compound]: in data set [1] (Canis lupus familiaris, iv, dog, 2,5 mg/kg i.v. slow perfusion, read-out: Average arterial pressure), the change in vivo at 2.5 mg/kg is -50%. The change in vivo at 2.5 mg/kg in data set [1] (Canis lupus familiaris, iv, dog, 2,5 mg/kg i.v. slow perfusion, read-out: Femoral artery flow) amounted to 100%. Further, in data set [1] (setting [8]), the “Average arterial pressure: in time” value was found to be 2 min and the “Femoral artery flow: in time” value was found to be 5 min. For the same molecule, in data set [2] (dog, 2,5 mg/kg i.v. rapid injection, read-out: Internal carotid artery back pressure), the change in vivo at 2.5 mg/kg is -26%. In addition, in data set [2] (dog, 2,5 mg/kg i.v. rapid injection, read-out: Systemic average arterial pressure), the change in vivo at 2.5 mg/kg was -50%. The change in vivo at 2.5 mg/kg in data set [2] (dog, 2,5 mg/kg i.v. rapid injection, read-out: Vertebral artery flow) was 100%. Besides, in data set [2] (setting [9]), the “Internal carotid artery back pressure: in time” value amounted to 5 min, the Systemic average arterial pressure: in time came to 2 min, the “Vertebral artery flow: in time” value was 5 min and the “Increase of the extraction of cerebral oxygen” value (“Increase” below) is on record as -50%.
In the case of `COc1ccc(Cc2nccc3cc(OC)c(OC)cc23)cc1OC` [Papaverine, papaverine, reference compound], in data set [1] (Canis lupus familiaris, iv, read-out: Femoral artery flow), the change in vivo at 2 mg/kg was 100%. Moreover, the “Femoral artery flow: in time” value in data set [1] (dog, 2 mg/kg i.v. slow perfusion) is listed as 1 min. Besides, in data set [2] (read-out: Internal carotid artery back pressure), the change in vivo at 2.5 mg/kg was -45%. The change in vivo at 2.5 mg/kg in data set [2] (read-out: Vertebral artery flow) was determined as 100%. Also, in data set [2] (setting [9]), the “Internal carotid artery back pressure: in time” value is 5 min, the “Vertebral artery flow: in time” value is 6 min and the “Increase” value worked out at 0%.
Turning to `C=CCOc1ccccc1OCC(O)CN1CCN(C(=O)/C=C/c2cc(OC)c(OC)c(OC)c2)CC1` (stereo not drawn) [760 503], the change in vivo at 5 mg/kg in data set [1] (setting [5]) is -6%. Moreover, in data set [1] (setting [6]), the change in vivo at 5 mg/kg amounted to 87%. Besides, in data set [1] (setting [7]), the “Average arterial pressure: in time” value turned out to be 15 min and the “Femoral artery flow: in time” value came out at 15 min.
Turning to `COc1cc(/C=C/C(=O)N2CCN(CC(O)COc3ccc(C)cc3)CC2)cc(OC)c1OC` (stereo not drawn) [760 505], the change in vivo at 5 mg/kg is -21% in data set [1] (setting [5]); 24% in data set [1] (setting [6]); -38% in data set [2] (setting [10]); -11% in data set [2] (setting [11]); 113% in data set [2] (setting [12]). In addition, the “Average arterial pressure: in time” value in data set [1] (setting [7]) is listed as 23 min. Besides, the “Femoral artery flow: in time” value in data set [1] (setting [7]) was 15 min. The “Internal carotid artery back pressure: in time” value in data set [2] (setting [13]) was determined as 10 min. In data set [2] (setting [13]), this molecule had a Systemic average arterial pressure: in time of 20 min. Besides, the “Vertebral artery flow: in time” value in data set [2] (setting [13]) turned out to be 10 min.
Consider `C(=C\c1ccccc1)/CN1CCN(C(c2ccccc2)c2ccccc2)CC1` [Cinnarizine, cinnarizine, reference compound], for which the change in vivo at 5 mg/kg in data set [1] (setting [6]) is 100%; in data set [2] (setting [10]), -25%; in data set [2] (setting [12]), 130%. In addition, the “Femoral artery flow: in time” value in data set [1] (setting [7]) was found to be 30 min. For the same molecule, the “Internal carotid artery back pressure: in time” value in data set [2] (setting [13]) turned out to be 30 min. Further, the “Vertebral artery flow: in time” value in data set [2] (setting [13]) is 30 min. The “Increase” value in data set [2] (setting [13]) stood at 0%.
`COc1cc(/C=C/C(=O)N2CCN(CC(O)COc3ccc(C#N)cc3)CC2)cc(OC)c1OC` (stereo not drawn) [760 501]: in data set [3] (2.3 mg/kg i.v. slow perfusion), the “Diminution in consumption of O2: in time” value was determined as 45 min and the “Diminution in the cardiac effort (IK): in time” value (from here on “Diminution in the cardiac effort”) is listed as 15 min. The inhibition in vivo at 2.3 mg/kg in data set [3] (2.3 mg/kg i.v. slow perfusion, read-out: Diminution in consumption of O2) was found to be 75%. For the same molecule, the inhibition in vivo at 2.3 mg/kg in data set [3] (2.3 mg/kg i.v. slow perfusion, read-out: Diminution in the cardiac effort (IK)) turned out to be 4%. Further, the change in vivo at 5 mg/kg in data set [1] (setting [5]) is -22%. The change in vivo at 5 mg/kg in data set [1] (setting [6]) came to 61%. For the same molecule, in data set [1] (setting [7]), the “Average arterial pressure: in time” value was determined as 35 min and the “Femoral artery flow: in time” value is given as 23 min.
For `COc1ccccc1OCC(O)CN1CCN(C(=O)/C=C/c2cc(OC)c(OC)c(OC)c2)CC1` (stereo not drawn) [760 392], in data set [3] (2.5 mg/kg i.v. slow perfusion), the “Diminution in consumption of O2: in time” value came to 30 min and the “Diminution in the cardiac effort” value is given as 30 min. Besides, the inhibition in vivo at 2.5 mg/kg in data set [3] (2.5 mg/kg i.v. slow perfusion, read-out: Diminution in consumption of O2) is 31%. The inhibition in vivo at 2.5 mg/kg in data set [3] (2.5 mg/kg i.v. slow perfusion, read-out: Diminution in the cardiac effort (IK)) was 11%. Further, the change in vivo at 10 mg/kg in data set [1] (Canis lupus familiaris, iv, dog, 10 mg/kg i.v. slow perfusion, read-out: Average arterial pressure) was -28%. Besides, the change in vivo at 10 mg/kg in data set [1] (Canis lupus familiaris, iv, dog, 10 mg/kg i.v. slow perfusion, read-out: Femoral artery flow) was 56%. For the same molecule, in data set [1] (setting [14]), the “Average arterial pressure: in time” value is reported as 38 min and the “Femoral artery flow: in time” value is reported as 45 min. For the same molecule, the change in vivo at 2 mg/kg in data set [2] (dog, 2 mg/kg i.v. rapid injection, read-out: Internal carotid artery back pressure) is -79%. The change in vivo at 2 mg/kg in data set [2] (dog, 2 mg/kg i.v. rapid injection, read-out: Systemic average arterial pressure) was -39%. In addition, in data set [2] (dog, 2 mg/kg i.v. rapid injection, read-out: Vertebral artery flow), the change in vivo at 2 mg/kg was 186%. In data set [2] (setting [15]), the “Internal carotid artery back pressure: in time” value is > 30 min, the Systemic average arterial pressure: in time was determined as 30 min and the “Vertebral artery flow: in time” value was < 30 min.
For `COc1cc(/C=C/C(=O)N2CCN(CC(O)COc3ccccc3C)CC2)cc(OC)c1OC` (stereo not drawn) [760 502], the results for the change in vivo at 5 mg/kg in data set [1] (setting [5]) and in data set [1] (setting [6]) were -22% and 190%, respectively. For the same molecule, the “Average arterial pressure: in time” value in data set [1] (setting [7]) is recorded as 15 min. The “Femoral artery flow: in time” value in data set [1] (setting [7]) turned out to be 35 min.
`COc1cccc(OCC(O)CN2CCN(C(=O)/C=C/c3cc(OC)c(OC)c(OC)c3)CC2)c1` (stereo not drawn) [760 390]: the “Diminution in consumption of O2: in time” value in data set [3] (9.1 mg/kg i.v. slow perfusion) was 53 min. Besides, the “Diminution in the cardiac effort” value in data set [3] (9.1 mg/kg i.v. slow perfusion) is given as 45 min. In addition, the inhibition in vivo at 9.1 mg/kg in data set [3] (9.1 mg/kg i.v. slow perfusion, read-out: Diminution in consumption of O2) is 64%; in data set [3] (9.1 mg/kg i.v. slow perfusion, read-out: Diminution in the cardiac effort (IK)) it was 60%. Moreover, in data set [4], the LD50 (as a rule, the dose expected to kill half of the subjects tested) worked out at 227 mg/kg. The change in vivo at 5 mg/kg in data set [2] (setting [10]) is -22%; in data set [2] (setting [11]), -13%; in data set [2] (setting [12]), 177%. In addition, in data set [2] (setting [13]), the “Internal carotid artery back pressure: in time” value is 5 min. Further, in data set [2] (setting [13]), the Systemic average arterial pressure: in time was < 10 min. Moreover, in data set [2] (setting [13]), the “Vertebral artery flow: in time” value came out at 30 min.
Take `COc1cc(/C=C/C(=O)N2CCN(CC(O)COc3cccc(Cl)c3)CC2)cc(OC)c1OC` (stereo not drawn) [760 504]: the change in vivo at 5 mg/kg in data set [1] (setting [5]) is -23%. The change in vivo at 5 mg/kg in data set [1] (setting [6]) worked out at 49%. Moreover, in data set [1] (setting [7]), the “Average arterial pressure: in time” value stood at 10 min and the “Femoral artery flow: in time” value is on record as 15 min.
